According to ChEMBL document CHEMBL6121064, “Recent Developments in 14-3-3 Stabilizers for Regulating Protein-Protein Interactions: An Update” (J Med Chem, 2025):

Assays:
Estrogen receptor = molecular target: T1, Estrogen receptor (Homo sapiens, UniProt P03372); assay: Inhibition of ERalpha (unknown origin)
T1 sequence (P03372 whole entry): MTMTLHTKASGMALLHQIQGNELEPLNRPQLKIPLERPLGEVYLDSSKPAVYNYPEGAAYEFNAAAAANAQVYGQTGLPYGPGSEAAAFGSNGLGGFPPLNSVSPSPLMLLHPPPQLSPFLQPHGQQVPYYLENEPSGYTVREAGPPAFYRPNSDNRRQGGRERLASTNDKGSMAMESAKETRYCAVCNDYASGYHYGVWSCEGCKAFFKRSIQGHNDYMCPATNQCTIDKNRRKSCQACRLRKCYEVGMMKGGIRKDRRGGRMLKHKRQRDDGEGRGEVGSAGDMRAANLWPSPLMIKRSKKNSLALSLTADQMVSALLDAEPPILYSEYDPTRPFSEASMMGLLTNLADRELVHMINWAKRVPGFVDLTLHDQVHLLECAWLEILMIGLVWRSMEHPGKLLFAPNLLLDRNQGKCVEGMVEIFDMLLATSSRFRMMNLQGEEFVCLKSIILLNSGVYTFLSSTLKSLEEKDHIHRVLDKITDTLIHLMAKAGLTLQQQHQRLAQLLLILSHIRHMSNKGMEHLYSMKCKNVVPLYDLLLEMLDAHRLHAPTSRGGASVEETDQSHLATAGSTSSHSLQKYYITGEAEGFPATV

[1] = molecular target: T2, 14-3-3 protein beta/alpha (Homo sapiens, UniProt P31946)
T2 sequence (P31946 whole entry): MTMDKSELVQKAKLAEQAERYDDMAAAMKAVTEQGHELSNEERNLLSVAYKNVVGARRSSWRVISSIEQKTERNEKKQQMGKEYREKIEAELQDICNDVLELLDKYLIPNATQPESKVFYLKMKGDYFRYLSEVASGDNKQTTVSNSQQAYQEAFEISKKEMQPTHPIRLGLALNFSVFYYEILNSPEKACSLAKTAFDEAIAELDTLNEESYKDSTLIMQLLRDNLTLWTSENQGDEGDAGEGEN

[2] = molecular target: RAF proto-oncogene serine/threonine-protein kinase (Homo sapiens, UniProt P04049); assay: Inhibition of C-RAF (unknown origin)
Sequence of RAF proto-oncogene serine/threonine-protein kinase (P04049 whole entry): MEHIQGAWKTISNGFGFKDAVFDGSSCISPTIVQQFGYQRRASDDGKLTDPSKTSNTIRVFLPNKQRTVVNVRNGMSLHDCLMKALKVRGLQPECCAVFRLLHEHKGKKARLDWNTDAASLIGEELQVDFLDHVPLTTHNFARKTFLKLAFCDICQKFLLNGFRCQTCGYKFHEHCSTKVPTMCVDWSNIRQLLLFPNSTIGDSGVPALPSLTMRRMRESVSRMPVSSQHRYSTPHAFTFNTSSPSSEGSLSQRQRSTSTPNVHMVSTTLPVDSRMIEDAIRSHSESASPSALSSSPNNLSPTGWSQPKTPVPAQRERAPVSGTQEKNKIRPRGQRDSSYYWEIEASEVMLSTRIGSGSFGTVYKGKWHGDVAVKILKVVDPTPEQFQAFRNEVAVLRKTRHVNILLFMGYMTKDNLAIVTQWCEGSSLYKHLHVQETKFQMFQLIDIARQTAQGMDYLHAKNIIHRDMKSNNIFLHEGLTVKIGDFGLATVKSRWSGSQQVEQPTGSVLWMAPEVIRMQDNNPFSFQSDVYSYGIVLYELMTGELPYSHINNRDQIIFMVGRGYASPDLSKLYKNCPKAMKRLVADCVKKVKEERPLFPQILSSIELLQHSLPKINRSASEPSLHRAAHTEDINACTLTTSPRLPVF

[3] = molecular target: T2, 14-3-3 protein beta/alpha; remark: listed apart in the source
MIA PaCa-2 = assay: cells; conditions: Homo sapiens, MIA PaCa-2, 48 h
HL-60 = assay: cells; conditions: Homo sapiens, HL-60, 72 h

| SMILES | IC50 (Estrogen receptor) [µM] | IC50 [2] [µM] | further results |
| --- | --- | --- | --- |
| O=C(C1=C(O)C(=O)N(c2ccc(O)c(C(=O)O)c2)C1c1ccc([N+](=O)[O-])cc1)c1ccccc1 (stereo not drawn) | 80 | – | – |
| N=C(N)c1cc(-c2cccc(NC(=O)C3(Oc4ccc(Cl)cc4)CCC(N)CC3)c2)cs1 (stereo not drawn) | – | – | IC50 [1]: 151 µM |
| CN(C)CCSSCCC(=O)N1CCC(O)(c2cccc(C(F)(F)F)c2)CC1 | – | 77 | – |
| CC(C)CC(NC(=O)[C@H](O)[C@H](N)Cc1ccccc1)C(=O)O (stereo partly drawn) | 1.8 | – | – |
| O=Cc1ccc(-n2ccnc2-c2ccc(F)cc2F)cc1Br | – | – | IC50 [3]: 250 µM |
| NCCCNCCS [WR-1065] | 2.8 | – | – |
| COC[C@H]1CC[C@@H]2/C1=C\[C@@]1(C)CCC(C(C)C)=C1C(O[C@@H]1O[C@H]3COC(C)(C)O[C@@H]3[C@@H](O)[C@@H]1O)[C@H](O)[C@@H]2C (stereo partly drawn) | – | – | IC50 (MIA PaCa-2): 18 µM |
| COC[C@H]1CC[C@@H]2/C1=C\[C@@]1(C)CCC(C(C)C)=C1C(O[C@@H]1O[C@@H](CNCc3ccccc3)[C@H](O)[C@@H](O)[C@@H]1O)[C@H](O)[C@@H]2C (stereo partly drawn) | – | – | IC50 (HL-60): 250 nM |

The next lines start with results.

| IC50 (Estrogen receptor) [µM] | IC50 [2] [µM] | SMILES | further results |
| --- | --- | --- | --- |
| 426 | 426 | CN(C)CCSSCCNC(=O)C1CCCN(C(=O)c2ccc(Oc3ccccc3)cc2)C1 (stereo not drawn) | – |
| 19 | 81 | CN(C)CCSSCCNC(=O)C1CCN(C(=O)C(C)(C)Oc2ccc(Cl)cc2)CC1 | – |
| – | 246 | COc1ccc2cc([C@H](C)C(=O)N3CCC(C(=O)NCCSSCCN(C)C)CC3)ccc2c1 | – |
